Source: ChEMBL document CHEMBL1134731, “1,3-Biarylureas as selective non-peptide antagonists of the orexin-1 receptor” (Bioorg Med Chem Lett, 2001)
Blank lines part the entries; values can stand above or below the compound they belong to.

Legend:
[1] = target: T1, Orexin/Hypocretin receptor type 1 (Homo sapiens) (UniProt O43613); test: Binding affinity towards orexin receptor type 1.
T1 sequence (whole entry): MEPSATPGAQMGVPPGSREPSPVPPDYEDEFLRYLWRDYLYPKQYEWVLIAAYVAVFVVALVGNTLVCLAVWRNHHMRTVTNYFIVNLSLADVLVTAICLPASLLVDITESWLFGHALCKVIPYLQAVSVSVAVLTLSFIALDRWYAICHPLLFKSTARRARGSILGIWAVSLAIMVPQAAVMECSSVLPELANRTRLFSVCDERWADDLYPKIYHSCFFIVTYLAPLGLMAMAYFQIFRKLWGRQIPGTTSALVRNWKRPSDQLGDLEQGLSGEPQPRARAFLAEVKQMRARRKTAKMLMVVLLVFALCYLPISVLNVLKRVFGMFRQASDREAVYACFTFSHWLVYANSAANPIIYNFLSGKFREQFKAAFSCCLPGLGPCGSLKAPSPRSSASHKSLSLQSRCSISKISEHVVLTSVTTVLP

[2] = target: 5-hydroxytryptamine receptor 2B (Homo sapiens, UniProt P41595); test: Binding affinity against 5-hydroxytryptamine 2B receptor
Sequence of 5-hydroxytryptamine receptor 2B (P41595 whole entry): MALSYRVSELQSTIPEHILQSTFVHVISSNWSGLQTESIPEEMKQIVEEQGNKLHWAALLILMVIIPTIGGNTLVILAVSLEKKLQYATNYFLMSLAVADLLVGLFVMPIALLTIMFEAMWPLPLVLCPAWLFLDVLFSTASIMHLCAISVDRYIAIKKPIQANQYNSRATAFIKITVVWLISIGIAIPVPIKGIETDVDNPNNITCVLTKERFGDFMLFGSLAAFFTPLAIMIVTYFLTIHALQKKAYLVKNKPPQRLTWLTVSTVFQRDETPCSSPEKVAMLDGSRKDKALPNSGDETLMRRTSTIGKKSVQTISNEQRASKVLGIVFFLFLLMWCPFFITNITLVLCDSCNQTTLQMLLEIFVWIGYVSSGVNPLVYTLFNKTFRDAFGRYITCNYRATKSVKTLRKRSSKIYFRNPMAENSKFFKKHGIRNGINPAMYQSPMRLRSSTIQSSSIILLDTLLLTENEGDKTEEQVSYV

[3] = target: T2, 5-hydroxytryptamine receptor 2C (Homo sapiens, UniProt P28335); test: Binding affinity against 5-hydroxytryptamine 2C receptor
T2 sequence (P28335 whole entry): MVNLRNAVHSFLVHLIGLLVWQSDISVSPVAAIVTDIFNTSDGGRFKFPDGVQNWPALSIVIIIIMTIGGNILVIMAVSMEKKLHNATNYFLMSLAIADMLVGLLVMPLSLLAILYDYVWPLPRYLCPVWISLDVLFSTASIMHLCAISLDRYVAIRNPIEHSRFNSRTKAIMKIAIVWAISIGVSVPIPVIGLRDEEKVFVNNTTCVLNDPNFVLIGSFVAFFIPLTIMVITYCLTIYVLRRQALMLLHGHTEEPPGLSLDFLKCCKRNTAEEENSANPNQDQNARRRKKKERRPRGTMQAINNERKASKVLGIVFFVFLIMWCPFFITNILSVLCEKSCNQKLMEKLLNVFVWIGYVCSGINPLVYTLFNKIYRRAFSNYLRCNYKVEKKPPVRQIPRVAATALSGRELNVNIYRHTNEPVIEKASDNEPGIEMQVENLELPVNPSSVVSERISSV

[4] = Steady state concentration was evaluated; format: ADME
[5] = Compound was tested in vivo for steady state brain-blood ratio after intravenous infusion of 1.8 mg/kg/h free base drug for 12h.; format: functional
[6] = Half life was evaluated in vivo after intraperitoneal administration; settings: ip
[7] = Brain level determined after 2 hr from ip bolus dosing of 10 mg/kg; format: functional; settings: route intraperitoneal
[8] = Brain level determined after 4 hr from a bolus 10 mg/kg ip dosing; format: functional; settings: route intraperitoneal
[9] = target: T3, Orexin receptor type 2 (Homo sapiens) (UniProt O43614)
T3 sequence (whole entry): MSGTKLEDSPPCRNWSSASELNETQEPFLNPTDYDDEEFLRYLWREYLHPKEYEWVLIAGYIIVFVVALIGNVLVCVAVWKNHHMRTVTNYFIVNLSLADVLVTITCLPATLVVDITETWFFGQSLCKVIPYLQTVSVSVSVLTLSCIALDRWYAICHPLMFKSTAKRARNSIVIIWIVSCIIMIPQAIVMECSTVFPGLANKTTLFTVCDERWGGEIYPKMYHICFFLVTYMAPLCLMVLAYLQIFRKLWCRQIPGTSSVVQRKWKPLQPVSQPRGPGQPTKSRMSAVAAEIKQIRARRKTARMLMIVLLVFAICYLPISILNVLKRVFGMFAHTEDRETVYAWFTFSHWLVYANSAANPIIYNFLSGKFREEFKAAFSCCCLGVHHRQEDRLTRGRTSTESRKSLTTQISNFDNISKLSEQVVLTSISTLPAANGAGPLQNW
Description: Compound was evaluated for its binding affinity towards Orexin receptor type 2

in vivo = settings: eutheria, po

- pKb [1]: 5.9
SMILES: Cc1nc2ccc(NC(=O)Nc3ccnc4ccncc34)cc2o1

- pKb [1]: < 6.2
SMILES: O=C(Nc1ccc2ocnc2c1)Nc1ccnc2ccccc12

- Ki [2]: 2.51 nM
- Ki [3]: 25.1 nM
- pKb [1]: 7.5
SMILES: Cn1ccc2cc(NC(=O)Nc3ccnc4ccccc34)ccc21

- pKb [1]: < 6.2
SMILES: N#Cc1ccc(NC(=O)Nc2ccnc3ccccc23)cc1

- pKb [1]: < 6.1
SMILES: O=C(Nc1ccc2c(ccn2Cc2ccccc2)c1)Nc1ccnc2ccccc12

- pKb [1]: < 6.3
SMILES: Cn1ccc2cc(NC(=O)Nc3ncnc4ccccc34)ccc21

- pKb [1]: < 6.3
SMILES: COc1ccc(NC(=O)Nc2ccnc3ccccc23)cc1OC

- pKb [1]: 7.5
SMILES: CSc1ccc(NC(=O)Nc2ccnc3cccnc23)cc1

- Ki [2]: 31.6 nM
- Ki [3]: 31.6 nM
- Css [4]: 1000 nM
- pKb [1]: 7.9
SMILES: CSc1ccc(NC(=O)Nc2ccnc3ccccc23)cc1
- Ratio [5]: 0.1

- pKb [1]: 6.1
SMILES: CN(C)c1cccc(NC(=O)Nc2ccnc3ccccc23)c1

- pKb [1]: < 5
SMILES: Cn1ccc2cc(NC(=O)Nc3ccncc3)ccc21

- pKb [1]: 7
SMILES: O=C(Nc1ccc2ncoc2c1)Nc1ccnc2ccccc12

- pKb [1]: < 6.1
SMILES: O=C(Nc1ccccc1)Nc1ccnc2ccccc12

- pKb [1]: 7.3
SMILES: Cn1ccc2cc(NC(=O)Nc3ccnc4cccnc34)ccc21

- Ki [2]: 3.98 nM
- Ki [3]: 79.4 nM
SMILES: Cc1cc2cc(NC(=O)Nc3ccnc4ccccc34)ccc2n1C

- pKb [1]: 7.4
SMILES: O=C(Nc1ccc2c(c1)OCCCO2)Nc1ccnc2ccccc12

- Ki [2]: 12.6 nM
- Ki [3]: 50.1 nM
- pKb [1]: 7.6
SMILES: CN1CCc2cc(NC(=O)Nc3ccnc4ccccc34)ccc21

SMILES: Cc1nc2ccc(NC(=O)Nc3ccnc4cccnc34)cc2o1
- Ki [2]: 3980 nM
- Ki [3]: > 5010 nM
- Css [4]: 490 nM
- half-life [6]: 24 min
- pKb [1]: 7.4
- Brain level [7]: 3.8 µM
- Brain level [8]: <30 nM
- Ratio [5]: 0.4
- pKb [9]: 5.7
- bioavailability (in vivo): 10%

- Ki [2]: 79.4 nM
- Ki [3]: 126 nM
- Css [4]: 4200 nM
- pKb [1]: 7.8
SMILES: CN(C)c1ccc(NC(=O)Nc2ccnc3ccccc23)cc1
- Ratio [5]: 0.06

- pKb [1]: 7.4
SMILES: CN(C)c1ccc(NC(=O)Nc2ccnc3ccccc23)cc1Cl

- pKb [1]: 6.5
SMILES: Cc1nc2ccc(NC(=O)Nc3ccnc4ncccc34)cc2o1

- pKb [1]: 6.2
SMILES: O=C(Nc1ccc2[nH]ccc2c1)Nc1ccnc2ccccc12

- Ki [2]: 15.8 nM
- Ki [3]: 50.1 nM
SMILES: COc1ccc(NC(=O)Nc2ccnc3ccccc23)cc1Cl

- pKb [1]: 6.6
SMILES: COc1cccc(NC(=O)Nc2ccnc3ccccc23)c1

- pKb [1]: 6.4
SMILES: O=C(Nc1cccc(Cl)c1)Nc1ccnc2ccccc12

- pKb [1]: < 6.3
SMILES: Cn1ccc2cc(NC(=O)Nc3cccc4ccccc34)ccc21

- pKb [1]: < 6.1
SMILES: Nc1ccc(NC(=O)Nc2ccnc3ccccc23)cc1

- pKb [1]: 6.8
SMILES: COc1ccc(NC(=O)Nc2ccnc3ccccc23)cc1

- Ki [2]: 50.1 nM
- Ki [3]: 31.6 nM
- Css [4]: 700 nM
- pKb [1]: 7.4
SMILES: CCN(CC)c1ccc(NC(=O)Nc2ccnc3ccccc23)cc1
- Ratio [5]: 0.16

- Ki [2]: 631 nM
- Ki [3]: 631 nM
- pKb [1]: 7.7
SMILES: Cc1nc2ccc(NC(=O)Nc3ccnc4ccccc34)cc2o1

- pKb [1]: 6.4
SMILES: O=C(Nc1ccc(N2CCCC2)cc1)Nc1ccnc2ccccc12
